Data on 36 compounds can be found in ChEMBL document CHEMBL5331042, “Azole inhibitors of mushroom and human tyrosinases: Current advances and prospects of drug development for melanogenic dermatological disorders” (Eur J Med Chem, 2022).

The target of the assay is Mushroom tyrosinase (Agaricus bisporus, UniProt O42713+Q00024+C7FF04+C7FF05). The experiment in a line: Inhibition of mushroom tyrosinase using L-DOPA as substrate preincubated for 10 mins followed by substrate addition and measured after 20 mins by absorbance based analysis.

For `Cc1ccc(NC(=O)CSc2nnc(Cc3csc(N)n3)n2-c2ccccc2)c(C)c1`, the IC50 amounted to 0.054 µM.
Then `CCc1cccc(C)c1NC(=O)CSc1nnc(Cc2csc(N)n2)n1-c1ccccc1`, with 0.19 µM; and `O=C1C=C(Cn2cc(COc3ccc(CO)cc3)nn2)C(=O)C=C1O`, with 1.32 µM.
The result for `CCc1ccccc1NC(=O)CSc1nnc(Cc2csc(N)n2)n1-c1ccccc1` reads 0.065 µM.
`COc1ccc(OCc2cn(CC3=CC(=O)C(O)=CC3=O)nn2)cc1` displayed an IC50 of 1.24 µM.
Compound `O=C1C=C(Cn2cc(COc3ccc(Cl)cc3Cl)nn2)C(=O)C=C1O` gave an IC50 of 1.12 µM.
Consider `COc1cccc(OC)c1C1=NC(=S)C(c2nn[nH]n2)C(=O)O1` (stereo unspecified), for which the IC50 was determined as 0.2 µM.
The compound `CC(=O)Nc1ccc(OCc2cn(CC3=CC(=O)C(O)=CC3=O)nn2)cc1` showed a 50% inhibitory concentration (IC50) of 2.64 µM.
For `CCc1ccc(NC(=O)CSc2nnc(Cc3csc(N)n3)n2-c2ccccc2)cc1`, the IC50 is 0.12 µM.
The result for `O=C1C=C(Cn2cc(COc3ccc([N+](=O)[O-])cc3)nn2)C(=O)C=C1O` reads 0.52 µM.
`COc1ccc(C2=NC(=S)C(C3N=NN=N3)C(=O)O2)cc1` (stereo unspecified): the concentration for half-maximal inhibition (IC50) came out at 0.073 µM.
As for `O=C1C=C(Cn2cc(COc3ccccc3)nn2)C(=O)C=C1O`, the half-maximal inhibitory concentration (IC50) was 1.33 µM.
Compound `Nc1nc(Cc2nnc(SCC(=O)NCCc3ccccc3)n2-c2ccccc2)cs1` showed an IC50 of 0.016 µM.
For the compound `O=C1C=C(Cn2cc(COc3ccc(Cl)cc3)nn2)C(=O)C=C1O`, the half-maximal inhibitory concentration (IC50) came out at 0.69 µM.
For `O=C1OC(c2cccc(Cl)c2)=NC(=S)C1C1N=NN=N1` (stereo unspecified), the IC50 was determined as 0.071 µM.
The result for `O=C1C=C(Cn2cc(COc3cccc(Cl)c3)nn2)C(=O)C=C1O` reads 0.99 µM; that for `Cc1ccc(C2=NC(=S)C(c3nn[nH]n3)C(=O)O2)cc1` (stereo unspecified), 0.31 µM.
In turn, `O=C1OC(c2ccc(Cl)cc2Cl)=NC(=S)C1c1nn[nH]n1` (stereo unspecified) returned a concentration for half-maximal inhibition (IC50) of 0.047 µM.
Then `Cc1cc(C)cc(NC(=O)CSc2nnc(Cc3csc(N)n3)n2-c2ccccc2)c1`, with 0.24 µM.
In the case of `CCOc1ccc(NC(=O)CSc2nnc(Cc3csc(N)n3)n2-c2ccccc2)cc1`, the half-maximal inhibitory concentration (IC50) amounted to 0.17 µM.
The result for `COc1cc(OCc2cn(CC3=CC(=O)C(O)=CC3=O)nn2)cc(OC)c1OC` reads 0.87 µM.
The result for `O=C1C=C(Cn2cc(COc3ccc(Br)cc3)nn2)C(=O)C=C1O` reads 6.8 µM.
Then `N#Cc1ccc(OCc2cn(CC3=CC(=O)C(O)=CC3=O)nn2)cc1`, with 6.29 µM; and `O=C1C=C(Cn2cc(COc3cccc(F)c3)nn2)C(=O)C=C1O`, with 1.07 µM; and `COc1cc(OC)cc(OCc2cn(CC3=CC(=O)C(O)=CC3=O)nn2)c1`, with 0.74 µM.
Turning to `O=C1C=C(Cn2cc(COc3ccc(F)cc3)nn2)C(=O)C=C1O`, the concentration for half-maximal inhibition (IC50) is 0.88 µM.
The compound `Nc1nc(Cc2nnc(SCC(=O)NCc3ccccc3)n2-c2ccccc2)cs1` came in with an IC50 of 1.01 µM.
The result for `Cc1ccccc1NC(=O)CSc1nnc(Cc2csc(N)n2)n1-c1ccccc1` reads 0.015 µM; that for `O=C1OC(c2ccc([N+](=O)[O-])cc2)=NC(=S)C1c1nn[nH]n1` (stereo unspecified), 0.081 µM; that for `Cc1ccc(C)c(NC(=O)CSc2nnc(Cc3csc(N)n3)n2-c2ccccc2)c1`, 0.058 µM.
The result for `Cc1cccc(C)c1NC(=O)CSc1nnc(Cc2csc(N)n2)n1-c1ccccc1` reads 0.051 µM.
For `O=C1OC(c2ccccc2Cl)=NC(=S)C1c1nn[nH]n1` (stereo unspecified), the half-inhibitory concentration (IC50) amounted to 0.088 µM.
In the case of `O=C1OC(c2cc([N+](=O)[O-])cc([N+](=O)[O-])c2)=NC(=S)C1c1nn[nH]n1` (stereo unspecified), the 50% inhibitory concentration (IC50) stood at 0.075 µM.
Then `Nc1nc(Cc2nnc(SCC(=O)Nc3ccccc3)n2-c2ccccc2)cs1`, with 0.13 µM; and `O=C1OC(c2cccc([N+](=O)[O-])c2)=NC(=S)C1C1N=NN=N1` (stereo unspecified), with 0.06 µM; and `Cc1ccc(NC(=O)CSc2nnc(Cc3csc(N)n3)n2-c2ccccc2)cc1C`, with 0.11 µM.

By IC50 is commonly meant the concentration needed to halve the response being measured. A high value points to lower potency.
